From ChEMBL document CHEMBL5674860, “Optimized Dual-Glo Assay to identify co-culture-induced drug vulnerabilities in 3D CRC models” (2024)

Assays:
Format in all cases: functional, Homo sapiens
Set-up in all cases: dose or concentration left out as unconfirmed
Colon cancer organoid [1] = test: Optimized Dual-Glo assay to identify co-culture induced drug vulnerabilities using donated chemical probes and chemogenomics kinase set in O06 CRC organoid and F06 CAF mono and co-culture. […] Cell viability is reported both mono and co-culture models.
Colon cancer organoid [2] = test: Optimized Dual-Glo assay to identify co-culture induced drug vulnerabilities using donated chemical probes and chemogenomics kinase set in O20 CRC organoid and F20 CAF mono and co-culture. […] Cell viability is reported both mono and co-culture models.
Colon cancer organoid [3] = test: Optimized Dual-Glo assay to identify co-culture induced drug vulnerabilities using donated chemical probes and chemogenomics kinase set in O14 CRC organoid and F14 CAF mono and co-culture. […] Cell viability is reported both mono and co-culture models.
[4] = Culture type Co-Culture, Transduced with Lucferase2-P2A-EGFP lentivirus
[5] = Culture type Co-Culture, Transduced with Renilla-dsRed lentivirus
[6] = Culture type Mono-Culture, Transduced with Lucferase2-P2A-EGFP lentivirus
[7] = Culture type Mono-Culture, Transduced with Renilla-dsRed lentivirus

| Compound | Cell Viability (Colon cancer organoid [1]; [4]) | Cell Viability (Colon cancer organoid [1]; [5]) | Cell Viability (Colon cancer organoid [1]; [6]) | Cell Viability (Colon cancer organoid [1]; [7]) | Cell Viability (Colon cancer organoid [2]; [4]) | Cell Viability (Colon cancer organoid [2]; [5]) | Cell Viability (Colon cancer organoid [2]; [6]) | Cell Viability (Colon cancer organoid [2]; [7]) | Cell Viability (Colon cancer organoid [3]; [4]) | Cell Viability (Colon cancer organoid [3]; [5]) | Cell Viability (Colon cancer organoid [3]; [6]) | Cell Viability (Colon cancer organoid [3]; [7]) |
| --- | --- | --- | --- | --- | --- | --- | --- | --- | --- | --- | --- | --- |
| C[C@@H](Oc1cc(-n2cnc3ccc(CN4CCN(C)CC4)cc32)sc1C(N)=O)c1ccccc1C(F)(F)F [GSK-461364] | 8.2073% | 127.3% | 6.274% | 91.647% | 36.0345% | 141.481% | 13.8424% | 71.1921% | 37.954% | 173.445% | 46.1468% | 90.9348% |
| CC(C)Oc1ccc(-c2nn([C@@H](C)c3oc4ccc(F)cc4c(=O)c3-c3cccc(F)c3)c3ncnc(N)c23)cc1F [UMBRALISIB] | 96.678% | 112.425% | 122.966% | 119.327% | 102.839% | 87.858% | 157.324% | 122.853% | 152.127% | 105.235% | 156.597% | 100.314% |
| COc1cc(C#N)ccc1S(=O)(=O)Nc1ccc2c(c1)cc(C)c(=O)n2C | 94.9001% | 111.598% | 60.6858% | 105.903% | 96.6614% | 124.149% | 82.6901% | 95.7551% | 68.1001% | 108.689% | 83.6696% | 112.833% |
| CN1CCN(c2ccc(-c3cccc(CN4CCOCC4)c3)cc2NC(=O)c2c[nH]c(=O)cc2C(F)(F)F)CC1 | 91.1397% | 122.014% | 99.8143% | 114.421% | 82.2903% | 116.555% | 112.073% | 84.4992% | 81.9859% | 136.534% | 110.455% | 90.7791% |
| COc1ccc2c(c1)O[C@H](c1ccc(OC)c(OC)c1)C[C@@H]2NC(=O)C1(c2ccc3c(c2)OC(F)(F)O3)CC1 [A-1596584] | 86.7173% | 88.6658% | 66.4869% | 108.119% | 72.8626% | 142.746% | 90.2448% | 98.4012% | 97.6687% | 114.369% | 74.3649% | 92.2647% |
| O[C@H]1CC[C@H](Nc2ncc3nc(Nc4c(F)cc(F)cc4F)n([C@H]4CCOC4)c3n2)CC1 [TANZISERTIB] | 96.802% | 109.826% | 106.51% | 114.573% | 129.23% | 97.8883% | 76.6269% | 101.702% | 101.857% | 126.192% | 105.608% | 109.828% |
| c1ccc(C2CCN(c3cnc4c(N5CCOCC5)nccn34)CC2)cc1 | 98.2025% | 98.7191% | 229.272% | 111.241% | 90.2822% | 108.246% | 142.742% | 115.191% | 111.149% | 110.22% | 155.031% | 89.751% |
| COc1ncc(F)cc1CNc1ccc(Cc2c[nH]c3ncc(C)cc23)c(F)n1 [PLX-5622] | 82.7626% | 63.3822% | 93.414% | 61.0678% | 205.726% | 55.6932% | 133.198% | 66.7491% | 95.8839% | 46.3569% | 130.226% | 44.2586% |
| COc1cccc2c1C(=O)c1c(O)c3c(c(O)c1C2=O)CC(O)(C(=O)CO)CC3OC1CC(N)C(O)C(C)O1.Cl (stereo unspecified) | 14.9439% | 235.56% | 8.313% | 104.821% | 5.379% | 237.178% | 7.074% | 81.7547% | 1.614% | 163.438% | 2.622% | 97.5605% |
| COc1ccc(Oc2cc(NCCC(F)(F)F)c3ncc(-c4ccc(C(=O)NC5CC5)c(C)c4)n3n2)c(F)c1F [BAY-1217389] | 5.893% | 100.303% | 6.114% | 52.2962% | 10.1003% | 184.891% | 6.085% | 72.716% | 15.963% | 131.783% | 28.3238% | 88.2574% |
| CNC(=O)c1cc(C(=O)N[C@H]2[C@@H]3COC[C@@H]32)cc2c1O[C@@H](CF)[C@@H]2c1ccccc1 [GSK943] | 83.6271% | 130.888% | 89.2117% | 119.155% | 106.252% | 108.354% | 98.6986% | 128.773% | 119.043% | 94.0726% | 104.923% | 119.987% |
| CC(=O)c1cc(-c2ccccc2OCC2CC2)c2ncccn12 | 107.249% | 181.775% | 93.2808% | 95.3402% | 90.8424% | 121.201% | 99.1369% | 90.8457% | 80.3991% | 93.1948% | 108.194% | 100.736% |
| Cc1cc2c(cc1N1C(=O)c3cccc4c(CCCO)ccc(c34)C1=O)n(C)c(=O)n2C | 83.3962% | 164.269% | 66.8328% | 103.172% | 35.0091% | 231.762% | 20.745% | 97.4451% | 46.4165% | 127.225% | 64.4307% | 101.303% |
| CC(=O)N1CCC(c2ccc(C(=O)NC3=NCCN3)cc2C(F)(F)F)CC1 [BI 0054] | 128.003% | 143.254% | 114.863% | 104.942% | 121.714% | 122.015% | 116.125% | 107.845% | 129.436% | 116.761% | 105.472% | 102.083% |
| CCC(F)(F)c1cc(N2CCC(S(C)(=O)=O)CC2)nc2sc(C(N)=O)c(N)c12 [BI-605906] | 93.6384% | 92.3898% | 93.147% | 102.109% | 178.631% | 81.0914% | 102.635% | 91.2338% | 108.411% | 90.1855% | 95.9322% | 83.0517% |
| CC(C)NC(=O)N1CC[C@H](NC2=Nc3cc(F)ccc3N(CC(F)F)c3ccc(Cl)cc32)C1 | 86.0472% | 89.4587% | 81.5326% | 94.1375% | 55.1322% | 142.836% | 58.5304% | 89.934% | 105.089% | 97.5374% | 82.3325% | 100.505% |
| CN(C)C(=O)c1sc2nc(N3CCC(S(C)(=O)=O)CC3)cc(C(F)(F)F)c2c1N [BI-5026] | 108.851% | 103.89% | 124.761% | 97.708% | 82.5801% | 112.021% | 96.6036% | 91.1442% | 89.3398% | 95.8994% | 89.8333% | 92.7462% |
| Cc1c(N2CCNCC2)nc2ccc(Br)cc2c1C(=O)NC[C@H](CCC(=O)O)c1ccccc1Cl [BAY-403] | 78.4474% | 70.4581% | 95.2254% | 113.122% | 119.673% | 79.2483% | 97.0551% | 97.643% | 128.287% | 83.5136% | 111.567% | 88.9346% |
